Reference: publication PMC12516379, “Rotamer-Controlled Self-Immolative Linkers Enable Tunable Release of Neurosteroid Oxime Prodrugs” (ACS Medicinal Chemistry Letters, 2025)

Columns and labels:
[1] = Stability in acetate buffer pH 5.0 at room temperature via HPLC (UV); assay type: physicochemical
Protocol: (§1) Stability studies were conducted in PBS and acetate buffer utilizing high performance liquid chromatography for potential drug storage considerations. […]
(§2) All experiments were performed in duplicate and results are presented as the average of two experimental replicates.
(§3) 1.1 Aqueous Stability in PBS and Acetate Buffer via HPLC
(§4) Material and Instrumentation
(§5) HPLC grade acetonitrile (MeCN) […] HPLC grade water (H 2O), and formic acid (FA) were purchased from Fisher Scientific.
(§6) Puradisc 4 mm PTFE (0.45 μm) syringe filters from Cytiva. Gibco ® Dulbecco’s phosphate-buffered saline (DPBS 1X, no calcium, no magnesium, pH = 7.03) and acetate buffer (pH = 5.0, 10 mM) were purchased directly from Thermo Fisher Scientific and Cytiva, respectively.
(§7) Aqueous stability experiments were performed on an Agilent 1100 HPLC equipped with an Agilent G1315B diode array detector, an Agilent G1316A heated column compartment, and a Zorbax Eclipse XDB-C18 (4.6 x 150 mm, 5 μm) column.
(§8) Procedure for Aqueous Stability Experiments
(§9) Each sample was first weighed out in two separate 2.0 mL vials using an analytical balance.
(§10) Unless otherwise specified, the test compounds were then dissolved in the aqueous media (PBS or acetate buffer) at a standard concentration of 1 mg/mL. All mixtures were subsequently sonicated for approximately 30 sec. […]
(§11) min), precipitates observed in sample solutions were filtered with a PTFE syringe filter prior to analysis. Immediately after sample preparation, injection by the HPLC autosampler was performed, which was recorded as the initial time point (t = 0 min). Solutions were then kept in the autosampler at RT and reinjected at designated intervals without additional filtration or sample modification. Remaining prodrug was defined by the area under the curve (AUC) at 254 nm. Aqueous stability was ascertained by calculating the percentage of the parent compound remaining after each time point. Linear regression of the time (x-axis) vs. ln(%remaining) (y-axis) plot afforded the rate constant k (slope = -k). Pseudo first-order half-lives were then calculated by the following equation: t1/2 = 0.693/k.

[2] = Stability in PBS at room temperature via HPLC (UV); assay type: physicochemical; details: phosphate-buffered saline (DPBS)
Protocol: as §1, §2, §3, §4, §5, §6, §7, §8, §9, §10, §11

[3] = PBS stability assay at 37 °C via LC-MS/MS; assay type: physicochemical; details: for half-life at 3 µM: pH 7.03, PBS
Protocol: (§20) To address this, prodrug stability was further evaluated in human plasma at 37 °C using liquid chromatography–tandem mass spectrometry (LC-MS/MS). For direct comparison, a parallel screen was conducted in PBS under identical conditions (Table ). To prevent premature degradation prior to LC-MS/MS analysis, acetonitrile containing formic acid was used as a quenching solution to acidify and stabilize the prodrugs in vials. […] This limitation in detection, along with the need for a more uniform and broadly applicable assessment across all compounds, prompted us to monitor the formation of the parent oxime as an alternative readout.
(§21) Stability experiments in human plasma and PBS were performed via liquid chromatography-tandem mass spectrometry (LC-MS/MS) to determine and compare rate of cleavage of progesterone prodrugs as well as selected allopregnanolone prodrugs (3 µM) when incubated at 37 °C. All experiments were performed in duplicate and results are presented as the average of two experimental replicates.

[4] = Plasma stability assay at 37 °C via LC-MS/MS, human plasma; assay type: in vitro ADME; details: for half-life at 3 µM: human, plasma;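 as to all read-outs here: prodrugs at 3 µM incubated in human plasma at 37 °C, intact prodrug quantified by LC-MS/MS over time, values are means of duplicate runs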
Protocol: as §20, §21

[5] = Plasma stability assay via LC-MS/MS, rat plasma; assay type: in vitro ADME; details: read-out: t1/2 in rat plasma (Table S19) (converted)
Protocol: (§12) Building on our observation that rotamer control in the steric series can be modulated by enzymatic stabilization or activation, we next evaluated whether this effect was species dependent. To investigate this, we performed comparative stability studies by incubating select prodrugs (20a, 20b, 20l and 20t; Figure ) in mouse and rat plasma – two of the most commonly used preclinical species in drug development. This approach allowed us to assess the potential influence of species-specific enzymes on rotamer equilibria and, by extension, prodrug activation rates. The self-immolation profiles for the sterically tuned linker series (20a–b) reveal discernible, species-dependent differences prodrug stability. […] While the precise biochemical drivers remain unclear, this observation warrants further investigation beyond the scope of this work.
(§13) 1.2 Stability in Plasma and PBS via LCMS
(§14) Procaine (positive control) was purchased from Sigma-Aldrich. HPLC grade MeCN, MeOH, H2O, and FA were purchased from Fischer Scientific. Human plasma (cat. No. […]- […]
(§15) 0102242) were obtained from BIOIVT. DPBS 1X (no calcium, no magnesium, pH = 7.03) was purchased from Thermo Fischer Scientific. Stock solutions were prepared in 100% DMSO, and suitable dilutions of target analytes were prepared in 0.1% FA /MeCN for method development.
(§16) For PBS assay Gibco® Dulbecco’s phosphate-buffered saline (DPBS 1X, no calcium, no magnesium, pH = 7.03) was utilized. All experiments were performed in duplicate and results are presented as the average of two experimental replicates.
(§17) Procedure for Plasma Stability Assay
(§18) Test compounds and positive control (i.e. procaine) were dissolved in DMSO to make a 10 mM stock solution and subsequently diluted to 500 μM in 50% MeCN and PBS. This intermediate stock solution was prepared and added immediately prior to the start of each test compound experiment. Plasma was thawed at ambient temperature and aliquoted (663.0 μL) into 1.5 mL Eppendorf tubes. Plasma was incubated at 37 °C for 10 minutes in an incubator shaker at 150 rpm, and the reactions were initiated by addition of the test compound or positive control (4.0 µL, 3 μM). The spiked plasma samples were incubated at 37 °C. For designated time points, 75 µL aliquots were removed from the incubation mixture and immediately quenched in 150 µL of MeCN/0.1%FA with internal standard (ISTD, 2 µM d 5-7-ethoxy coumarin). […] The supernatant was transferred to an LC-MS vial and analyzed by LC/MS-MS. […]
(§19) LC–MS/MS analysis was performed using an Agilent 1260 Infinity II HPLC, coupled with an Agilent G6460 triple quadrupole mass spectrometer (Agilent Technologies, USA). All the data were acquired employing Agilent 6460 Quantitative Analysis data processing software. […]

[6] = Plasma stability assay via LC-MS/MS, mouse plasma; assay type: in vitro ADME; details: read-out: t1/2 in mouse plasma (Table S20) (converted)
Protocol: as §12, §13, §14, §15, §16, §17, §18, §19

[7] = Aqueous solubility by visual inspection in acetate buffer (pH 5); details: sodium acetate buffer
Protocol: For the solubility assessment, acetate buffer (pH 5) was selected as the media of choice to ensure prodrug stability during analysis.
High aqueous solubility was determined by visual inspection of 5 mg solid material in 0.5 mL
sodium acetate buffer solution. This media was selected to ensure stability of prodrugs during
dissolution in 50 mg/mL aqueous media.

[8] = Formation of progesterone oxime 3 from prodrugs in human plasma at 37 °C over 2 h; assay type: in vitro ADME; details: 2 h period
Protocol: Given the greater biological relevance of plasma, we focused on quantifying the formation of progesterone and allopregnanolone oxime in human plasma at 37 °C over a 2 h period. Results for selected progesterone prodrugs are presented in Figure A–C, illustrating the broad range of plasma cleavage rates as a function of promoiety design (see Figure S13 in Supporting Information for complete data set). Complete stability data for synthesized allopregnanolone prodrugs (Figures S18–S20) are provided in the Supporting Information. Given that their trends closely paralleled the progesterone series, they were not discussed in detail in the main text. […] This unexpected result prompted further investigation using computational modeling, described in the following section. […] Higher pK a values were associated with faster and more complete oxime formation, likely due to enhanced H-bonding which could stabilize the reactive syn-conformer. […] For the heterocyclic pyrrolidine and angle-strained series (Figure C), the release rates closely matched the experimentally determined prodrug half-lives (Table ), which were shorter in human plasma than in PBS. […] Although both 20s and 20t are capable of adopting the reactive syn-rotamer, their self-immolation reactivity diverged due to differences in linker geometry. The cyclopropane in 20s induces angle strain that hinders nucleophilic attack, rendering the compound stable under both PBS and plasma conditions. […] This intriguing result warrants further investigation, with follow-up studies currently in progress. Finally, the nucleophilic capacity of the amine tethers in prodrugs 20w–20z were evaluated based on their ability to cyclize in plasma, as detailed in the Supporting Information Figure S13.
as §13, §14, §15, §16, §17
Test compounds and positive control (i.e. procaine) were dissolved in DMSO to make a 10 mM stock solution and subsequently diluted to 500 μM in 50% MeCN and PBS. […] The supernatant was transferred to an LC-MS vial and analyzed by LC/MS-MS. […]

[9] = pH 5, acetate buffer pH 5.0, RT, 1 mg/mL, HPLC 254 nm, read-out: t1/2 in acetate buffer at RT (Tables S5-S8) (converted)
[10] = pH 5, acetate buffer pH 5.0, rt, HPLC (UV), read-out: Half-life (t½) pH 5.0 rt (converted)
[11] = pH 5, acetate buffer pH 5.0, rt, read-out: t½: pH 5.0, rt (Table S23) (converted)
[12] = pH 7.03, DPBS pH 7.03, RT, 1 mg/mL, HPLC 254 nm, read-out: t1/2 in PBS buffer at RT (Tables S1-S4) (converted)
[13] = pH 7.03, PBS, rt, HPLC (UV), read-out: Half-life (t½) PBS rt (converted)
[14] = pH 7.03, PBS, rt, read-out: t½: PBS, rt (Table S23) (converted)
[15] = phosphate-buffered saline (DPBS), 37 °C, 3 µM, LC-MS/MS, read-out: t1/2 in PBS at 37 °C (Tables S14-S17) (converted)
[16] = phosphate-buffered saline (DPBS), 37 °C, LC-MS/MS, read-out: Half-life (t½) PBS 37°C (converted)
[17] = phosphate-buffered saline (DPBS), 37 °C, read-out: PBS, 37 °C t½ (Table S23) (converted)
[18] = 3 µM, LC-MS/MS, read-out: t1/2 in human plasma at 37 °C (Tables S10-S13, S18) (converted)
[19] = LC-MS/MS, read-out: Half-life (t½) Plasma 37°C (converted)
[20] = read-out: Plasma, 37 °C t½ (Table S23) (converted)
[21] = pH 5, aqueous buffer, thermodynamic from solid

Compound | half-life at 1 mg/mL [1, 9] | half-life at 1 mg/mL [1, 10] | half-life at 1 mg/mL [1, 11] | half-life at 1 mg/mL [2, 12] | half-life at 1 mg/mL [2, 13] | half-life at 1 mg/mL [2, 14] | PBS, 37 °C %rem. at 2h (Table S23) ([3]; PBS, 37 °C, 2 h) | half-life at 3 µM [3, 15] | half-life at 3 µM [3, 16] | half-life at 3 µM [3, 17] | Plasma, 37 °C %rem. at 2h (Table S23) [4] | half-life at 3 µM [4, 18] | half-life at 3 µM [4, 19] | half-life at 3 µM [4, 20] | half-life at 3 µM [5] | half-life at 3 µM [6] | solubility [7, 21] | Formation/release of oxime 3 in human plasma, in words [8] | also measured
CNCCN(C(=O)O/N=C(\C)[C@H]1CC[C@H]2[C@@H]3CCC4=CC(=O)CC[C@]4(C)[C@H]3CC[C@]12C)C1CC1.O=C(O)C(F)(F)F [20b] | > 168 h | > 168 h | > 168 h | 28.16 ± 0.04 h | 28.2 h | 28.2 h | 68% | 4.5 h | 4.5 h | 4.5 h | 31% | 1.27 h | 1.27 h | 1.27 h | 2.3 h | 5.4 h | > 10 mg/mL |  | half-life at 3 µM ([3]; phosphate-buffered saline (DPBS), 37 °C, read-out: t1/2 (h) PBS, 37 °C (Tables S25, S26) (converted)): 4.5 h; remaining at 2 h, 3 µM ([3]; phosphate-buffered saline (DPBS), pH 7.03, PBS, 37 °C, 2 h, read-out: % Remaining @ 2h, PBS, 37 °C (Tables S25, S26)): 68%
CNCCN(CCN(C)C)C(=O)O/N=C(\C)[C@H]1CC[C@H]2[C@@H]3CCC4=CC(=O)CC[C@]4(C)[C@H]3CC[C@]12C [20g] | 75.8 h | 75.8 h | 75.8 h | 2.17 ± 0.02 h | 2.17 h | 2.17 h |  |  |  |  |  |  |  |  |  |  | < 10 mg/mL | rapid, first-order release | 
C/C(=N\OC(=O)N(C)C[C@@H]1CCCN1)[C@H]1CC[C@H]2[C@@H]3CCC4=CC(=O)CC[C@]4(C)[C@H]3CC[C@]12C.O=C(O)C(F)(F)F [20l] | 175 h | 175 h | 175 h | 1.9 ± 0.12 h | 1.9 h | 1.9 h | 8% | 0.74 h | 0.74 h | 0.74 h | 1% | 0.31 h | 0.31 h | 0.31 h | 0.4 h | 0.4 h | > 10 mg/mL |  | 
C/C(=N\OC(=O)N(C)C[C@@H]1CC(F)(F)CN1)[C@H]1CC[C@H]2[C@@H]3CCC4=CC(=O)CC[C@]4(C)[C@H]3CC[C@]12C [20r] |  |  |  |  |  |  | 72% | 4.93 h | 4.93 h | 4.93 h | stable |  |  | > 24 h |  |  |  | low levels of oxime | Prodrug stability / self-immolation in buffer, in words ([3]; PBS): highly stable, noncleaving prodrug; t1/2 in human plasma at 37 °C (Tables S10-S13, S18) ([4]; 3 µM, LC-MS/MS): stable; Half-life (t½) Plasma 37°C ([4]; LC-MS/MS): stable; solubility ([7]; pH 5): < 10 mg/mL
CNC1(CN(C)C(=O)O/N=C(\C)[C@H]2CC[C@H]3[C@@H]4CCC5=CC(=O)CC[C@]5(C)[C@H]4CC[C@]23C)CCC1 [20t] | > 168 h | > 168 h | > 168 h | 10.5 h | 10.5 h | 10.5 h | 14% | 0.94 h | 0.94 h | 0.94 h | 4% | 0.44 h | 0.43 h | 0.44 h | 0.46 h | 0.34 h | > 10 mg/mL |  | 
